Test results taken from patent publication US20250230193A1, “CYCLIC COMPOUND HAVING SELECTIVE KRAS INHIBITORY EFFECT ON HRAS AND NRAS” (CHUGAI SEIYAKU KABUSHIKI KAISHA, priority 2022, published 2025).
pIC50: −log10 of the molar value. Where two headings read alike, the source gives them in different places. *1 amine or outer side, *2 acyl side, *3 side chain or, on linkers, in order; H or OH if unused. Where a SMILES comes first, the peptide text is derived from it. Bridges are numbered along the chain shown (N, C = ends). [ ]: non-standard residue; d: D form. The star is where a group is joined. dhPhe(3-Cl,4-CF3) = N[C@H](CCc1ccc(C(F)(F)F)c(Cl)c1)C(=O)O; hPhe(3-Cl-4-CF3) = N[C@@H](CCc1ccc(C(F)(F)F)c(Cl)c1)C(=O)O; X3 = C=CCN([C@H](Cc1ccccc1)C(=O)[*:2])[*:1]; X5 = CCCN([C@H](C(=O)[*:2])C1CCCC1)[*:1]; NMeGly(cPent) = CN[C@H](C(=O)O)C1CCCC1; NMeNle(5-ene) = C=CCC[C@H](NC)C(=O)O; NMeD = CN[C@@H](CC(=O)O)C(=O)O; NMeL = CN[C@@H](CC(C)C)C(=O)O; Morpholide = C1CN(*)CCO1; NMeA = CN[C@@H](C)C(=O)O; Ac5c = NC1(C(=O)O)CCCC1; Aze = O=C(O)[C@@H]1CCN1; Sar = CNCC(=O)O

Assays:
[1] = biological target: GDP-bound NRAS wild-type protein (Homo sapiens, UniProt P01111); test: Binding to NRAS by surface plasmon resonance (SPR), Single Cycle Kinetics
[2] = biological target: GDP-bound HRAS wild-type protein (Homo sapiens, UniProt P01112); test: Binding to HRAS by surface plasmon resonance (SPR), Single Cycle Kinetics
[3] = system: human lung cancer strain NCI-H441
[4] = GDP-bound NRAS wild-type vs GDP-bound KRAS wild-type, SPR
[5] = GDP-bound HRAS wild-type vs GDP-bound KRAS wild-type, SPR
[6] = read-out: NCI-H441 IC50, NCI-H441 cells, 4 days, CellTiter-Glo

Chain of GDP-bound NRAS wild-type protein (P01111 whole entry): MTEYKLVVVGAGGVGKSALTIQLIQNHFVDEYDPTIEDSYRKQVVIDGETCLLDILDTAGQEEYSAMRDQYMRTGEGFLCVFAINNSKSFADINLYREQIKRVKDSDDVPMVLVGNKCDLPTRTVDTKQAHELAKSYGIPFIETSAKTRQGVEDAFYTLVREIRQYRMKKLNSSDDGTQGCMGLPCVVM
Chain of GDP-bound HRAS wild-type protein (P01112 whole entry): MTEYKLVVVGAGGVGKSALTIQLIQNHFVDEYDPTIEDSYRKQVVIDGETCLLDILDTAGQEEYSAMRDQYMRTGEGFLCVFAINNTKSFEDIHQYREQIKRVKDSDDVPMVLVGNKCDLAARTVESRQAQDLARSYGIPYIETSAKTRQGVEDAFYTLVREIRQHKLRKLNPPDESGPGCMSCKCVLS

pIC50 [3]	Structure (SMILES)	NRAS/KRAS (ratio of KD value for NRAS to KD value for KRAS) [1, 4]	HRAS/KRAS (ratio of KD value for HRAS to KD value for KRAS) [2, 5]	further results
8.37	CC[C@H](C)[C@@H]1NC(=O)[C@H](CC2CC2)N(C)C(=O)C[C@@H](C(=O)N(C)C)N(C)C(=O)[C@H](C2CCCC2)N(C)C(=O)C2(CC(C)(C)C2)NC(=O)[C@@H]2C[C@H](C)CN2C(=O)[C@H](CCc2cc(F)c(C(F)(F)F)c(F)c2)NC(=O)CN(C)C(=O)[C@H](Cc2ccc(C(F)(F)F)cc2)N2CC/C=C\C[C@@H](C2=O)N(C)C(=O)CN(C)C1=O [PP1660]	A (a compound having 10 or more and less than 20 is denoted as A)	A (a compound having 10 or more and less than 20 is denoted as A)	–
8.30	CCC[C@H]1C(=O)N[C@@H]([C@@H](C)CC)C(=O)N(C)CC(=O)N(C)[C@H]2C/C=C\CCN(C2=O)[C@@H](Cc2ccc(C(F)(F)F)cc2)C(=O)N(C)CC(=O)N[C@@H](CCc2ccc(C(F)(F)F)c(OC)c2)C(=O)N2C[C@H](OCC)C[C@H]2C(=O)NC2(CC(C)(C)C2)C(=O)N(C)[C@@H](C2CCCC2)C(=O)N(C)[C@H](C(=O)N(C)CC)CC(=O)N1C [PP1676]	A (a compound having 10 or more and less than 20 is denoted as A)	A (a compound having 10 or more and less than 20 is denoted as A)	–
7.97	CC[C@H](C)[C@@H]1NC(=O)[C@H](CC)N(C)C(=O)C[C@@H](C(=O)N(C)CC)N(C)C(=O)[C@H](C2CCCC2)N(C)C(=O)C2(CC(C)(C)C2)NC(=O)[C@@H]2C[C@H](C)CN2C(=O)[C@H](CCc2ccc(C(F)(F)F)c(OC)c2)NC(=O)CN(C)C(=O)[C@H](Cc2ccc(C)cc2)N2CC/C=C\C[C@@H](C2=O)N(C)C(=O)CN(C)C1=O [PP1868]	A (a compound having 10 or more and less than 20 is denoted as A)	B (a compound having 3 or more and less than 10 is denoted as B)	–
7.61	CC[C@H](C)[C@@H]1NC(=O)[C@H](CC2CCCC2)N(C)C(=O)C[C@@H](C(=O)N(C)C)N(C)C(=O)[C@H](C2CCCC2)N(C)C(=O)C2(CCC2)NC(=O)[C@@H]2[C@@H](OCC(F)F)CCN2C(=O)[C@H](CCc2cc(F)c(C(F)(F)F)c(F)c2)NC(=O)CN(C)C(=O)[C@H](Cc2ccc(C)cc2)N2CC/C=C\C[C@H](C2=O)N(C)C(=O)CN(C)C1=O [PP1536]	–	–	NRAS/KRAS (ratio of KD value for GDP-bound NRAS wild-type protein to KD value for KRAS) ([1]; SPR, KD ratio class): A (a compound having 10 or more and less than 20 is denoted as A); HRAS/KRAS (ratio of KD value for GDP-bound HRAS wild-type protein to KD value for KRAS) ([2]; SPR, KD ratio class): B (a compound having 3 or more and less than 10 is denoted as B)
–	CCC[C@H]1C(=O)N[C@@H]([C@@H](C)CC)C(=O)N(C)CC(=O)N(C)[C@H]2C/C=C\CCN(C2=O)[C@@H](Cc2ccc(C(F)(F)F)cc2)C(=O)N(C)CC(=O)N[C@@H](CCc2cc(Cl)c3c(ccn3C)c2)C(=O)N2C[C@H](OCC)C[C@H]2C(=O)NC2(CC(C)(C)C2)C(=O)N(C)[C@@H](C(CC)CC)C(=O)N(C)[C@H](C(=O)N(C)C)CC(=O)N1C [PP2896]	–	–	NRAS/KRAS (ratio of KD value with respect to GDP-bound NRAS wild-type protein to KD value with respect to KRAS) ([1]; KD ratio NRAS/KRAS, class symbols): A (a compound having 10 or more and less than 20 is denoted as A); HRAS/KRAS (ratio of KD value with respect to GDP-bound HRAS wild-type protein to KD value with respect to KRAS) ([2]; KD ratio HRAS/KRAS, class symbols): A (a compound having 10 or more and less than 20 is denoted as A); pIC50 [3, 6]: 7.10
7.54	CCO[C@@H]1C[C@H]2C(=O)NC3(CCC3)C(=O)N(C)[C@@H](C3CCCC3)C(=O)N(C)[C@H](C(=O)N(C)CC)CC(=O)N(C)[C@H]3CCCCCc4ccc(cc4)C[C@@H](C(=O)N(C)CC(=O)N[C@@H](CCc4cc(F)c(C(F)(F)F)c(F)c4)C(=O)N2C1)N1CC/C=C\C[C@@H](C1=O)N(C)C(=O)CN(C)C(=O)[C@H]([C@@H](C)CC)NC3=O [PP2117]	–	–	NRAS/KRAS (ratio of KD value with respect to NRAS to KD value with respect to KRAS) ([1]; SPR, GDP-bound NRAS wild-type vs GDP-bound KRAS wild-type): A (a compound having 10 or more and less than 20 is denoted as A); HRAS/KRAS (ratio of KD value with respect to HRAS to KD value with respect to KRAS) ([2]; SPR, GDP-bound HRAS wild-type vs GDP-bound KRAS wild-type): A (a compound having 10 or more and less than 20 is denoted as A)
8.17	CC[C@H](C)[C@@H]1NC(=O)[C@H](CC(C)C)N(C)C(=O)C[C@@H](C(=O)N(C)C)N(C)C(=O)[C@H](C2CCCC2)N(C)C(=O)C2(CC(C)(C)C2)NC(=O)[C@@H]2C[C@H](C)CN2C(=O)[C@H](CCc2ccc(C(F)(F)F)c(OC)c2)NC(=O)CN(C)C(=O)[C@H](Cc2ccc(C)cc2)N2CC/C=C\C[C@@H](C2=O)N(C)C(=O)CN(C)C1=O [PP1905]	A (a compound having 10 or more and less than 20 is denoted as A)	A (a compound having 10 or more and less than 20 is denoted as A)	–
7.82	CC[C@H](C)[C@@H]1NC(=O)[C@H](CC(C)C)N(C)C(=O)C[C@@H](C(=O)N(C)CC)N(C)C(=O)[C@H](C2CCCC2)N(C)C(=O)C2(CC(C)(C)C2)NC(=O)[C@@H]2C[C@@H](C)CN2C(=O)[C@H](CCc2ccc(C(F)(F)F)c(OC)c2)NC(=O)CN(C)C(=O)[C@H](Cc2ccc(C)cc2)N2CC/C=C\C[C@@H](C2=O)N(C)C(=O)CN(C)C1=O [PP1909]	A (a compound having 10 or more and less than 20 is denoted as A)	B (a compound having 3 or more and less than 10 is denoted as B)	–
6.48	CC[C@H](C)[C@@H]1NC(=O)[C@H](CC(C)C)N(C)C(=O)C[C@@H](C(=O)N(C)C)N(C)C(=O)[C@H](C2CCCC2)N(C)C(=O)C2(CCCC2)NC(=O)C2CCCN2C(=O)[C@H](CCc2ccc(C(F)(F)F)c(Cl)c2)NC(=O)CN(C)C(=O)[C@H](Cc2ccc(C(F)(F)F)cc2)N2CC/C=C\COC[C@@H](C2=O)N(C)C(=O)CN(C)C1=O (stereo partly drawn) [PP0622]	–	–	NRAS/KRAS (ratio of KD value with respect to GDP-bound NRAS wild-type protein to KD value with respect to KRAS) ([1]; KD ratio NRAS/KRAS, SPR): B (a compound having 3 or more and less than 10 is denoted as B); HRAS/KRAS (ratio of KD value with respect to GDP-bound HRAS wild-type protein to KD value with respect to KRAS) ([2]; KD ratio HRAS/KRAS, SPR): B (a compound having 3 or more and less than 10 is denoted as B)
5.55	C=CCC[C@H]1C(=O)N(CC=C)[C@H](Cc2ccccc2)C(=O)N(C)CC(=O)N[C@H](CCc2ccc(C(F)(F)F)c(Cl)c2)C(=O)N2CCC[C@H]2C(=O)NC2(CCCC2)C(=O)N(C)[C@@H](C2CCCC2)C(=O)N(C)[C@H](C(=O)N2CCOCC2)CC(=O)N(C)[C@@H](CC(C)C)C(=O)N[C@@H]([C@@H](C)CC)C(=O)N(C)CC(=O)N1C [PP0599] ([NMeL]I[Sar][NMeNle(5-ene)][X3][Sar][dhPhe(3-Cl,4-CF3)]P[Ac5c][NMeGly(cPent)][NMeD]-Morpholide; lactam N-11)	–	–	NRAS/KRAS (ratio of KD value with respect to GDP-bound NRAS wild-type protein to KD value with respect to KRAS) ([1]; KD ratio NRAS/KRAS, SPR): C (A compound having a KD ratio of 0.1 or more and less than 3 is denoted as C); HRAS/KRAS (ratio of KD value with respect to GDP-bound HRAS wild-type protein to KD value with respect to KRAS) ([2]; KD ratio HRAS/KRAS, SPR): B (a compound having 3 or more and less than 10 is denoted as B)
–	CCCN1C(=O)[C@@H]2CCN2C(=O)[C@H](C)N(C)C(=O)[C@H]([C@@H](C)CC)NC(=O)[C@H](CC(C)C)N(C)C(=O)C[C@@H](C(=O)N2CCOCC2)N(C)C(=O)[C@H](C2CCCC2)N(C)C(=O)C2(CCCC2)NC(=O)[C@@H]2CCCN2C(=O)[C@H](CCc2ccc(C(F)(F)F)c(Cl)c2)NC(=O)CN(C)C(=O)[C@@H]1C1CCCC1 [PP0054] ([NMeL]I[NMeA][Aze][X5][Sar][hPhe(3-Cl-4-CF3)]P[Ac5c][NMeGly(cPent)][NMeD]-Morpholide; lactam N-11)	–	–	NRAS/KRAS (ratio of KD for GDP-bound NRAS wild-type to KD for KRAS) ([1]; KD ratio NRAS/KRAS, SPR): C (A compound having a KD ratio of 0.1 or more and less than 3 is denoted as C); HRAS/KRAS (ratio of KD for GDP-bound HRAS wild-type to KD for KRAS) ([2]; KD ratio HRAS/KRAS, SPR): C (A compound having a KD ratio of 0.1 or more and less than 3 is denoted as C); pIC50 [3, 6]: 7.09
8.25	CCO[C@@H]1C[C@H]2C(=O)NC3(CC(C)(C)C3)C(=O)N(C)[C@@H](C3CCCC3)C(=O)N(C)[C@H](C(=O)N(C)CC)CC(=O)N(C)[C@@H](CC3CC3)C(=O)N[C@@H]([C@@H](C)CC)C(=O)N(C)CC(=O)N(C)[C@H]3C/C=C\CCN(C3=O)[C@@H](Cc3ccc(C(F)(F)F)cc3)C(=O)N(C)CC(=O)N[C@@H](CCc3ccc(C(F)(F)F)c(OC)c3)C(=O)N2C1 [PP1678]	A (a compound having 10 or more and less than 20 is denoted as A)	B (a compound having 3 or more and less than 10 is denoted as B)	–

Structure (SMILES)	pIC50 [3]	NRAS/KRAS (ratio of KD value for NRAS to KD value for KRAS) [1, 4]	HRAS/KRAS (ratio of KD value for HRAS to KD value for KRAS) [2, 5]	further results
CCC[C@H]1C(=O)N[C@@H]([C@@H](C)CC)C(=O)N(C2CC2)CC(=O)N(C)[C@H]2C/C=C\CCN(C2=O)[C@@H](Cc2ccc(C)cc2)C(=O)N(C)CC(=O)N[C@@H](CCc2ccc(C(F)(F)F)c(OC)c2)C(=O)N2C[C@H](OCC)C[C@H]2C(=O)N(C)C2(CCC2)C(=O)N(C)[C@@H](C2CCCC2)C(=O)N(C)[C@H](C(=O)N2CCCCC2)CC(=O)N1C [PP3096, (2S,8S,12R,14S,20S,23S,27S,30S,36S,38Z)-20-cyclopentyl-32-cyclopropyl-12-ethoxy-8-[2-[3-methoxy-4-(trifluoromethyl)phenyl]ethyl]-4,16,19,22,26,35-hexamethyl-30-[(1S)-1-methylpropyl]-23-(piperidine-1-carbonyl)-27-propyl-2-(p-tolylmethyl)spiro[1,4,7,10,16,19,22,26,29,32,35-undecazatricyclo[34.5.1.0^10,14]dotetracont-38-ene-17,1′-cyclobutane]-3,6,9,15,18,21,25,28,31,34,42-undecone]	7.45	–	–	NRAS/KRAS (ratio of KD value with respect to GDP-bound NRAS wild-type protein to KD value with respect to KRAS) ([1]; KD ratio NRAS/KRAS, SPR, GDP-bound wild-type proteins): A (a compound having 10 or more and less than 20 is denoted as A); HRAS/KRAS (ratio of KD value with respect to GDP-bound HRAS wild-type protein to KD value with respect to KRAS) ([2]; KD ratio HRAS/KRAS, SPR, GDP-bound wild-type proteins): A (a compound having 10 or more and less than 20 is denoted as A)
